Species: Rattus norvegicus
Test: DrugMatrix - Regimen: Daily Repeat
Type: toxicity, organism-based, Sprague-Dawley
Design: regimen Daily Repeat, gender Male, age 6-8 weeks
Conditions: in vivo, po, route oral GAVAGE, […]; for ABSOLUTE BASOPHIL / ABSOLUTE EOSINOPHIL / ABSOLUTE LYMPHOCYTE / ABSOLUTE MONOCYTE / ABSOLUTE SEGMENTED NEUTROPHIL / BASOPHIL / EOSINOPHIL / ERYTHROCYTE COUNT / HEMATOCRIT / HEMOGLOBIN / LEUKOCYTE COUNT / LYMPHOCYTE / MEAN CORPUSCULAR HEMOGLOBIN / MEAN CORPUSCULAR HEMOGLOBIN CONCENTRATION / MEAN CORPUSCULAR VOLUME / MONOCYTE / NEUTROPHIL / NUCLEATED RED BLOOD CELLS / PLATELET COUNT: tissue Blood; for ALANINE AMINOTRANSFERASE / ALBUMIN / ALKALINE PHOSPHATASE / ASPARTATE AMINOTRANSFERASE / BLOOD UREA NITROGEN / CARBON DIOXIDE / CHLORIDE / CHOLESTEROL / CREATINE PHOSPHOKINASE / CREATININE / GLUCOSE / LACTATE DEHYDROGENASE / LIPASE / PHOSPHORUS / POTASSIUM / SODIUM / TOTAL BILIRUBIN / TOTAL PROTEIN / URIC ACID: tissue Plasma
[1] = 0 mg/kg, 72 h, dose level Control, time 3 day
[2] = 0 mg/kg, 120 h, dose level Control, time 5 day
[3] = 5 mg/kg, 72 h, dose level Low, time 3 day

O=c1oc2ccccc2c(O)c1Cc1c(O)c2ccccc2oc1=O [DICUMAROL]
ABSOLUTE BASOPHIL [1]: 0 CELLS/uL
ABSOLUTE EOSINOPHIL [1]: 0 CELLS/uL
ABSOLUTE LYMPHOCYTE [1]: 9244.83 CELLS/uL
ABSOLUTE MONOCYTE [1]: 102 CELLS/uL
ABSOLUTE SEGMENTED NEUTROPHIL [1]: 869.83 CELLS/uL
BASOPHIL [1]: 0%
EOSINOPHIL [1]: 0%
ERYTHROCYTE COUNT [1]: 5.43 x10E6/uL
HEMATOCRIT [1]: 34.03%
HEMOGLOBIN [1]: 13.27 G/DL
LEUKOCYTE COUNT [1]: 10.22 x10E3/uL
LYMPHOCYTE [1]: 90.33%
MEAN CORPUSCULAR HEMOGLOBIN [1]: 24.48 pg
MEAN CORPUSCULAR HEMOGLOBIN CONCENTRATION [1]: 39.03 G/DL
MEAN CORPUSCULAR VOLUME [1]: 62.75 fL
MONOCYTE [1]: 1%
NEUTROPHIL [1]: 8.67%
NUCLEATED RED BLOOD CELLS [1]: 0.17 /100WBC
PLATELET COUNT [1]: 989 x10E3/uL
ALANINE AMINOTRANSFERASE [1]: 77 u/L
ALBUMIN [1]: 3.97 G/DL
ALKALINE PHOSPHATASE [1]: 464.83 u/L
ASPARTATE AMINOTRANSFERASE [1]: 89.83 u/L
BLOOD UREA NITROGEN [1]: 12.17 mg/dL
CARBON DIOXIDE [1]: 34.17 mmol/L
CHLORIDE [1]: 98.33 MEQ/L
CHOLESTEROL [1]: 75.17 mg/dL
CREATINE PHOSPHOKINASE [1]: 367.67 u/L
CREATININE [1]: 0.16 mg/dL
GLUCOSE [1]: 142.67 mg/dL
LACTATE DEHYDROGENASE [1]: 139.33 u/L
LIPASE [1]: 9.5 u/L
PHOSPHORUS [1]: 10.85 mg/dL
POTASSIUM [1]: 6.38 MEQ/L
SODIUM [1]: 143.2 MEQ/L
TOTAL BILIRUBIN [1]: 0.2 mg/dL
TOTAL PROTEIN [1]: 5.77 G/DL
URIC ACID [1]: 0.7 mg/dL
ABSOLUTE BASOPHIL [2]: 0 CELLS/uL
ABSOLUTE EOSINOPHIL [2]: 0 CELLS/uL
ABSOLUTE LYMPHOCYTE [2]: 8295.33 CELLS/uL
ABSOLUTE MONOCYTE [2]: 84.67 CELLS/uL
ABSOLUTE SEGMENTED NEUTROPHIL [2]: 970 CELLS/uL
BASOPHIL [2]: 0%
EOSINOPHIL [2]: 0%
ERYTHROCYTE COUNT [2]: 5.74 x10E6/uL
HEMATOCRIT [2]: 36.22%
HEMOGLOBIN [2]: 13.85 G/DL
LEUKOCYTE COUNT [2]: 9.35 x10E3/uL
LYMPHOCYTE [2]: 88.67%
MEAN CORPUSCULAR HEMOGLOBIN [2]: 24.13 pg
MEAN CORPUSCULAR HEMOGLOBIN CONCENTRATION [2]: 38.25 G/DL
MEAN CORPUSCULAR VOLUME [2]: 63.08 fL
MONOCYTE [2]: 1%
NEUTROPHIL [2]: 10.33%
NUCLEATED RED BLOOD CELLS [2]: 0.17 /100WBC
PLATELET COUNT [2]: 883.83 x10E3/uL
ALANINE AMINOTRANSFERASE [2]: 64.5 u/L
ALBUMIN [2]: 4.12 G/DL
ALKALINE PHOSPHATASE [2]: 425.67 u/L
ASPARTATE AMINOTRANSFERASE [2]: 88.5 u/L
BLOOD UREA NITROGEN [2]: 14.17 mg/dL
CARBON DIOXIDE [2]: 30.5 mmol/L
CHLORIDE [2]: 100.33 MEQ/L
CHOLESTEROL [2]: 55.33 mg/dL
CREATINE PHOSPHOKINASE [2]: 287.17 u/L
CREATININE [2]: 0.2 mg/dL
GLUCOSE [2]: 162.83 mg/dL
LACTATE DEHYDROGENASE [2]: 111.33 u/L
LIPASE [2]: 10.5 u/L
PHOSPHORUS [2]: 10.32 mg/dL
POTASSIUM [2]: 5.13 MEQ/L
SODIUM [2]: 143.93 MEQ/L
TOTAL BILIRUBIN [2]: 0.17 mg/dL
TOTAL PROTEIN [2]: 5.9 G/DL
URIC ACID [2]: 0.77 mg/dL
ABSOLUTE BASOPHIL [3]: 0 CELLS/uL
ABSOLUTE EOSINOPHIL [3]: 0 CELLS/uL
ABSOLUTE LYMPHOCYTE [3]: 11414.33 CELLS/uL
ABSOLUTE MONOCYTE [3]: 52 CELLS/uL
ABSOLUTE SEGMENTED NEUTROPHIL [3]: 1133.67 CELLS/uL
BASOPHIL [3]: 0%
EOSINOPHIL [3]: 0%
ERYTHROCYTE COUNT [3]: 5.32 x10E6/uL
HEMATOCRIT [3]: 33.6%
HEMOGLOBIN [3]: 13.17 G/DL
LEUKOCYTE COUNT [3]: 12.6 x10E3/uL
LYMPHOCYTE [3]: 91%
MEAN CORPUSCULAR HEMOGLOBIN [3]: 24.8 pg
MEAN CORPUSCULAR HEMOGLOBIN CONCENTRATION [3]: 39.2 G/DL
MEAN CORPUSCULAR VOLUME [3]: 63.37 fL
MONOCYTE [3]: 0.33%
NEUTROPHIL [3]: 8.67%
NUCLEATED RED BLOOD CELLS [3]: 0 /100WBC
PLATELET COUNT [3]: 1057.33 x10E3/uL
ALANINE AMINOTRANSFERASE [3]: 67.67 u/L
ALBUMIN [3]: 4.03 G/DL
ALKALINE PHOSPHATASE [3]: 399.67 u/L
ASPARTATE AMINOTRANSFERASE [3]: 91 u/L
BLOOD UREA NITROGEN [3]: 10.33 mg/dL
CARBON DIOXIDE [3]: 32.67 mmol/L
CHLORIDE [3]: 99 MEQ/L
CHOLESTEROL [3]: 74 mg/dL
CREATINE PHOSPHOKINASE [3]: 353.33 u/L
CREATININE [3]: 0.24 mg/dL
GLUCOSE [3]: 146 mg/dL
LACTATE DEHYDROGENASE [3]: 177 u/L
LIPASE [3]: 9 u/L
PHOSPHORUS [3]: 11.23 mg/dL
POTASSIUM [3]: 6.24 MEQ/L
SODIUM [3]: 143.6 MEQ/L
TOTAL BILIRUBIN [3]: 0.17 mg/dL
TOTAL PROTEIN [3]: 5.7 G/DL
URIC ACID [3]: 0.6 mg/dL

From ChEMBL document CHEMBL3885881, “DrugMatrix”
